Source: patent US6107489A, “Extended lifetimes in vivo renin inhibitors” (ConjuChem, Inc., priority 1999, dated 2000)
Read-outs that look alike come from different tables or passages of the source.

What was measured:
renin [1] = type: in vivo, rabbit; settings: for Corrected % Inhibition: normalized for dilution
Experimental: Materials and Methods: The following procedures were done under sterile conditions. Rabbit plasma was obtained from freshly drawn heparinized blood. One 8 mL aliquot of plasma was incubated with 5 micromoles of YS-004-69 (15) (the NHS ester; "NHS-RI") for 60 minutes at room temperature. Another equal aliquot was similarly incubated with 5 micromoles of YS-004-65 (free acid; "Free RI"). The reaction mixtures were stored at 4° C. overnight. Aliquots of these samples were saved for analysis of total renin inhibitor content by a standard renin radioimmunoassay (RIA). After warming to 37° C., the plasma samples were injected into two autologous rabbits. The rabbits were then bled at defined intervals. The blood was centrifuged for 5 minutes at 2500 rpm and then aliquots of the plasma were analyzed by RIA. Results: Plasma proteins derivatized with the NHS ester of the renin inhibitor did indeed maintain the inhibitor in a conformation which remained bioavailable and inhibitory after an extended period of circulation in the blood. […] Again, the amount of inhibitor detectable has been normalized for the effect of dilution of the plasma by the volume of blood in circulation. "ND" means this measurement was not determined.

renin [2] = target: T1, renin (Homo sapiens, UniProt P00797); assay: renin inhibition IC50; type: biochemical
T1 sequence (P00797 67-406): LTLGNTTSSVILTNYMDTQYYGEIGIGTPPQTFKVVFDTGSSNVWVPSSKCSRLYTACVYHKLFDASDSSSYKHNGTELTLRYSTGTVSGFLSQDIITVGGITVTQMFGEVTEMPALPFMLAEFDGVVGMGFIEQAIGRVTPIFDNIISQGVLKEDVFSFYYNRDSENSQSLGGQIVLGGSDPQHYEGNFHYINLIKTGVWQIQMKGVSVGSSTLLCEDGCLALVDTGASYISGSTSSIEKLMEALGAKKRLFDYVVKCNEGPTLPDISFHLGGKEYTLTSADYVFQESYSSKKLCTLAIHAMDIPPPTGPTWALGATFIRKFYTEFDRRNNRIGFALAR

Molecule	Crude % Inhibition (renin [1]; 10 min after injection) [%]	Corrected % Inhibition (renin [1]; 10 min after injection) [%]	Crude % Inhibition (renin [1]; 30 min after injection) [%]	Corrected % Inhibition (renin [1]; 30 min after injection) [%]	Crude % Inhibition (renin [1]; 1 hour after injection) [%]	Corrected % Inhibition (renin [1]; 1 hour after injection) [%]	Crude % Inhibition (renin [1]; 4 hours after injection) [%]	Corrected % Inhibition (renin [1]; 4 hours after injection) [%]	Crude % Inhibition (renin [1]; 6 hours after injection) [%]	Corrected % Inhibition (renin [1]; 6 hours after injection) [%]	Crude % Inhibition (renin [1]; 8 hours after injection) [%]	Corrected % Inhibition (renin [1]; 8 hours after injection) [%]	Crude % Inhibition (renin [1]; 1 day after injection) [%]	Corrected % Inhibition (renin [1]; 1 day after injection) [%]	Crude % Inhibition (renin [1]; 2 days after injection) [%]	Corrected % Inhibition (renin [1]; 2 days after injection) [%]	Crude % Inhibition (renin [1]; 3 days after injection) [%]	Corrected % Inhibition (renin [1]; 3 days after injection) [%]	Corrected % Inhibition (renin [1]; 6 days after injection) [%]	Crude % Inhibition (renin [1]; 10 days after injection) [%]	further results
CC[C@H](C)[C@H](NC(=O)C[C@H](O)[C@H](CC1CCCCC1)NC(=O)[C@H](Cc1c[nH]cn1)NC(=O)[C@H](Cc1ccccc1)NC(=O)OC(C)(C)C)C(=O)NCCCCCC(=O)O [YS-004-65, Boc-Phe-His-ACHPA-IIe-6-AC-OH]	89.40	100.00	20.60	23.04	-2.80	-3.13	-5.20	-5.82	-0.40	-0.45	-2.90	-3.24	-5.20	-5.82	-3.20	-3.58	1.40	1.57	0.00	-6.60	Corrected % Inhibition (renin [1]; 10 days after injection): -7.38%; level of renin inhibitor / inhibition in plasma over time (renin [1]; rabbit, in vivo): not detectable after one hour; IC50 (renin [2]): 50 nM
CC[C@H](C)CNC(=O)C[C@H](O)[C@H](CC1CCCCC1)NC(=O)[C@H](Cc1c[nH]cn1)NC(=O)[C@H](Cc1ccccc1)NC(=O)OC(C)(C)C [parent renin inhibitor, reference compound]																					IC50 (renin [2]): 4 to 19 nM
Boc-Phe-His-ACHPA-IIe-6-AC-NHS [YS-004-69]	97.70	100.00	87.40	89.46	85.90	87.92	87.40	99.69	88.20	100.51	70.50	72.16	75.10	76.87	68.10	69.70	75.80	77.38	56.60	41.20	Crude % Inhibition (renin [1]; 6 days after injection): 55.30%; Corrected % Inhibition (renin [1]; 10 days after injection): 42.17%
